The values that follow come from patent publication US10314819B2, “Solid state forms of Eluxadoline” (TEVA PHARMACEUTICALS INTERNATIONAL GMBH, priority 2015, dated 2019).

Each structure is given as a SMILES string. Where two headings read alike, the source gives them in different places.

Holding throughout (format): physicochemical
Data set [1] is described as follows: Thermal stability, heating in a vacuum dryer at 50° C. and 100° C. (XRPD, HPLC). Conditions: for XRPD / HPLC/Area % (start: 99.88): vacuum dryer. The procedure:
Samples of Eluxadoline alpha (5 g) were subjected to heating in a vacuum dryer at 50° C. and 100° C., for different periods of time.

Data set [2] is described as follows: Specific surface area (SSA), BET nitrogen. The procedure:
Specific Surface Area (SSA) measurements (Bet Nitrogen) were determined using a Micromeritics ASAP 2000, specific surface area analyzer. Samples were subjected to the BET nitrogen adsorption analysis to determine the specific surface of the samples.
Sample tube: 10 cc bulb with ½″ stem
Sample mass: Approximately ½ full cell
Sample preparation: Degassing with nitrogen
Outgassing conditions: 40° C. (30 min)
Isothermal collection point: 20 adsorption points, in the range 0-1 P/P0
Isothermal data analysis range: 5 point BET in the range 0.05-0.20 P/P0
Equilibration interval: 5 s
Equilibration time out: 600 s

Data set [3] can be described thus: Polymorph stability on storage at various relative humidity (PXRD). The procedure:
Sample after being powdered in a mortar and pestle is applied directly on a silicon plate holder. The X-ray powder diffraction pattern was measured with Philips X'Pert PRO X-ray powder diffractometer, equipped with Cu irradiation source=1.54184 Å(Ångström), X'Celerator (2.022° 2θ) detector. Scanning parameters: angle range: 3-40 deg., step size 0.0167, time per step 37 s, continuous scan.
(§1) The obtained amorphous form was stored at various conditions, and the PXRD was analyzed after 3 and 7 days:
The obtained pure amorphous form was stored at various conditions, and the PXRD was analyzed after 3 and 7 days:
(§2) The obtained form alpha was stored at various conditions, and the PXRD was analyzed after 3 and 8 days:
(§3) The obtained amorphous form was stored at various conditions of relative humidity, and the PXRD was obtained after 1M (Table 4):
(§4) The obtained amorphous form was stored at various conditions, and the PXRD was obtained after 2M (Table 5):
(§5) XRPD pattern is shown in FIG. 16; SEM image is shown in FIG. 17; DSC thermogram is shown in FIG. 21 and TGA thermogram is shown in FIG. 22. The obtained form alpha was stored at various conditions, and the PXRD was obtained after 8, 14, and 21 days (Table 6): […]

Data set [4] in a line: % weight loss / water content (TGA, KF) after storage at various relative humidity. Conditions: for % weight loss/water cont. - after 1 M, TGA: TGA up to 190° C. The procedure: as §1, §2, §3, §4, §5
Data set [5] in a line: Dissolution in 50 mM phosphate buffer pH = 7.4 at 37° C. Conditions: 50 mM phosphate buffer pH = 7.4, 37° C. The procedure: Samples were prepared and analysed in duplicate. About 20 mg of each sample were weighed into 500 ml Erlenmeyer flask, 200 ml of 50 mM phosphate buffer pH=7.4, previously heated to 37° C. were added and flasks were shaken at 110 rpm for 60 minutes at 37±0.2° C. in an incubator shaker. 3 ml aliquots were taken at 5, 10, 20, 30, 45 and 60 min, filtered through 0.45 μm Chromafil Xtra RC 45/25 syringe filter and analysed by UV/VIS spectrometer (absorbance at 203 nm).
The measurement was performed using the following instruments: • pH/Ion meter PHM 240, MeterLab, Radiometer Analytical • Incubator shaker Innova 4080, New Brunswick Scientific, 19 mm diameter circular orbit • UV/VIS spectrometer Varian Cary 50 Bio, 1 mm quartz cell Results of Eluxadoline samples dissolution in 50 mM phosphate buffer pH=7.4 are summarized in Table 8 below: […]

Data set [6] can be described thus: Flow function, FT4 Powder Rheometer, Freeman shear test 9 kPa. Conditions: PSD/μm 10/60/164. The procedure: The Flow function was determined by using FT4 Powder Rheometer, Freeman FT4 instrument, and standard Freeman shear test—9 kPa (using small cell 1 ml), according to method below:
1. Compact to 9 kPa for 60 s
2. Pre shear hold 7 kPa for 16 s
3. Shear test at 7 kPa (Shear at 18°/min for 10°, auto detected peak torque yes)
4. Pre shear hold 6 kPa for 16 s
5. Shear test at 6 kPa (Shear at 18°/min for 10°, auto detected peak torque yes)
6. Pre shear hold 5 kPa for 16 s
7. Shear test at 5 kPa (Shear at 18°/min for 10°, auto detected peak torque yes)
8. Pre shear hold 4 kPa for 16 s
9. Shear test at 4 kPa (Shear at 18°/min for 10°, auto detected peak torque yes)
10. Pre shear hold 3 kPa for 16 s
11. Shear test at 3 kPa (Shear at 18°/min for 10°, auto detected peak torque yes)

In the case of `COc1ccc(CN(C(=O)[C@@H](N)Cc2c(C)cc(C(N)=O)cc2C)[C@@H](C)c2nc(-c3ccccc3)c[nH]2)cc1C(=O)O` [Eluxadoline alpha form, Eluxadoline], the XRPD result is given as “alpha” in data set [1] (50 ° C., 1 h); “alpha” in data set [1] (50 ° C., 2 h); “alpha” in data set [1] (50 ° C., 3 h); “alpha” in data set [1] (100 ° C., 1 h); “alpha” in data set [1] (100 ° C., 2 h); “alpha” in data set [1] (100 ° C., 3 h). The “HPLC/Area % (start: 99.88)” value in data set [1] (50 ° C., 3 h) was found to be 99.91 Area %; in data set [1] (100 ° C., 3 h) it was 99.91 Area %. In addition, the “stability by XRPD and HPLC on heating” value in data set [1] (vacuum dryer at 50° C. and 100° C., different periods of time) is on record as “stable”. In addition, the SSA result in data set [2] (listed as Eluxadoline form alpha) was “about 9.63 m^2/g”.
Take `COc1ccc(CN(C(=O)[C@@H](N)Cc2c(C)cc(C(N)=O)cc2C)[C@@H](C)c2nc(-c3ccccc3)c[nH]2)cc1C(=O)O` [Example 10, Eluxadoline]: the “PXRD results - after 7 days” value is “amorphous” in data set [3] (0% RH, 7 days); “amorphous” in data set [3] (20% RH, 7 days); “amorphous” in data set [3] (40% RH, 7 days); “amorphous” in data set [3] (60% RH, 7 days); “amorphous” in data set [3] (80% RH, 7 days); “amorphous” in data set [3] (100% RH, 7 days). Moreover, in data set [3] (As is), the “PXRD results - after 7 days” value is recorded as “amorphous”. The “% weight loss/water cont. - after 7 days, TGA” value is on record as “TGA-7.96%” in data set [4] (0% RH, 7 days); 7.96% in data set [4] (20% RH, 7 days); 8.15% in data set [4] (40% RH, 7 days); 8.88% in data set [4] (60% RH, 7 days); 11.88% in data set [4] (80% RH, 7 days); 15.03% in data set [4] (100% RH, 7 days). In data set [4] (As is), the “% weight loss/water cont. - after 7 days, TGA” value was “TGA-5.97%”. Further, the “% weight loss/water cont. - after 7 days, KF” value in data set [4] (20% RH, 7 days) was 9.01%; in data set [4] (40% RH, 7 days), 9.11%; in data set [4] (60% RH, 7 days), 9.91%; in data set [4] (80% RH, 7 days), 13.30%; in data set [4] (100% RH, 7 days), 15.69%.
Regarding `COc1ccc(CN(C(=O)[C@@H](N)Cc2c(C)cc(C(N)=O)cc2C)[C@@H](C)c2nc(-c3ccccc3)c[nH]2)cc1C(=O)O` [Example 11, Eluxadoline], the “PXRD results after 7 days” value in data set [3] (0% RH, 7 days) is on record as “amorphous”; in data set [3] (20% RH, 7 days) it was “amorphous”; in data set [3] (40% RH, 7 days) it was “amorphous”; in data set [3] (60% RH, 7 days), “amorphous”; in data set [3] (80% RH, 7 days), “amorphous”; in data set [3] (100% RH, 7 days), “amorphous”.
Consider `COc1ccc(CN(C(=O)[C@@H](N)Cc2c(C)cc(C(N)=O)cc2C)[C@@H](C)c2nc(-c3ccccc3)c[nH]2)cc1C(=O)O` [Example 12, 5-(((S)-2-amino-3-(4-carbamoyl-2,6-dimethylphenyl)-N—((S)-1-(4-phenyl-1H-imidazol-2-yl)ethyl)propanamido)methyl)-2-methoxybenzoic acid], for which the “PXRD results after 8 days” value in data set [3] (0% RH), in data set [3] (20% RH), in data set [3] (40% RH), in data set [3] (60% RH) and in data set [3] (80% RH) was “alpha” throughout. Besides, the “% weight loss after 8 days by TGA” value in data set [4] (as is, TGA up to 121° C.) is “TGA* = 1.29%”.
`COc1ccc(CN(C(=O)[C@@H](N)Cc2c(C)cc(C(N)=O)cc2C)[C@@H](C)c2nc(-c3ccccc3)c[nH]2)cc1C(=O)O` [Example 20]: the “% dissolved” value in data set [5] (5 min) was 63.21%; in data set [5] (10 min), 81.56%; in data set [5] (20 min), 91.46%; in data set [5] (30 min), 93.81%; in data set [5] (45 min) it was 94.48%; in data set [5] (60 min), 94.50%. The “PXRD results - after 1 M” value was “amorphous” in data set [3] (0% RH, 1 M); “amorphous” in data set [3] (20% RH, 1 M); “amorphous” in data set [3] (40% RH, 1 M); “amorphous” in data set [3] (60% RH, 1 M); “amorphous” in data set [3] (80% RH, 1 M); “amorphous” in data set [3] (100% RH, 1 M). Further, the “PXRD results - after 1 M” value in data set [3] (As is) is “amorphous”. Besides, the “% weight loss/water cont. - after 1 M, TGA” value in data set [4] (0% RH, 1 M) was “TGA-7.42%”; in data set [4] (20% RH, 1 M), “TGA-8.42%”; in data set [4] (40% RH, 1 M) it was “TGA-9.34%”; in data set [4] (60% RH, 1 M), “TGA-10.36%”; in data set [4] (80% RH, 1 M), “TGA-12.89%”; in data set [4] (100% RH, 1 M) it was “TGA-15.23%”. In addition, the “% weight loss/water cont. - after 1 M, TGA” value in data set [4] (As is) is “TGA-5.79%”.
On to `COc1ccc(CN(C(=O)[C@@H](N)Cc2c(C)cc(C(N)=O)cc2C)[C@@H](C)c2nc(-c3ccccc3)c[nH]2)cc1C(=O)O` [Example 21], for which the “Classification of powder flowability after Jenike” value in data set [6] was “Free-flowing (10 < FF)”. Also, in data set [6] (shear test 9 kPa), the “Flow Function, (FF)” value is on record as 10.08. In addition, the “PXRD results - after 2 M” value is recorded as “amorphous” in data set [3] (0% RH, 2 M); “amorphous” in data set [3] (20% RH, 2 M); “amorphous” in data set [3] (40% RH, 2 M); “amorphous” in data set [3] (60% RH, 2 M); “amorphous” in data set [3] (80% RH, 2 M); “amorphous” in data set [3] (100% RH, 2 M). Further, in data set [3] (As is), the “PXRD results - after 2 M” value was “amorphous”. For the same compound, the “% weight loss/water cont. after 2 M KF” value in data set [4] (0% RH, 2 M) stood at 8.56%; in data set [4] (20% RH, 2 M), 9.17%; in data set [4] (40% RH, 2 M), 10.50%; in data set [4] (60% RH, 2 M), 11.93%; in data set [4] (80% RH, 2 M), 14.15%; in data set [4] (100% RH, 2 M), 14.54%. Further, in data set [4] (As is), the “% weight loss/water cont. after 2 M KF” value is 4.42%. This compound returned an SSA in data set [2] of 1.243 m^2/g.
For `COc1ccc(CN(C(=O)[C@@H](N)Cc2c(C)cc(C(N)=O)cc2C)[C@@H](C)c2nc(-c3ccccc3)c[nH]2)cc1C(=O)O` [amorphous Eluxadoline, Eluxadoline], the “changes of samples exposed to RH (stability of amorphous form)” value in data set [3] (RH 0-10% for a 7 day period) is listed as “did not show any changes”.
